From patent publication US20040097576A1, “Use of tryptophan derivatives for the specific cytostatic treatment of serotonin-producing tumors” (priority 2001, published 2004) come the findings set out here.

Data set [1] relates to tryptophan-hydroxylase (TPH) and aromatic-amino acid-decarboxylase (AAAD). The data set is described as follows: Intracellular enzymatic metabolisation by TPH and AAAD. The class given is in vitro ADME. The following applies: 7-HTP to 5,7-DHT, 6-HTP to 5,6-DHT. An excerpt:
The invention is put into practice according to the claims. […] These two enzymes, TPH and AAAD, are expressed extraordinarily strong in serotonin-producing tumor cells. Due to the unequally higher TPH-expression in these tumor cells in comparison with normal serotonin-producing tissues, only marginally toxic effects occur in these tissues.
FIG. 1. Reaction scheme of enzymatic metabolisation of 7-hydroxytryptophan (7-HTP) to 5,7-dihydroxytryptamine (5,7-DHT). The rate-limiting first step is mediated by the enzyme tryptophan-hydroxylase (TPH) and is followed by a rapid decarboxylation by the aromatic-amino acid-decarboxylase (AAAD).

Data set [2] concerns serotonin-producing cells NG108. The data set is described as follows: Toxicity of 7-HTP on serotonin-producing cells NG108 (FIG. 2). The class given is cell-based. The source says: (§1) FIG. 2. […] In contrast, the growth of COS7-cells that produce no serotonin is not affected by 7-HTP.
Data set [3] relates to serotonin-producing mastocytoma cells P815. Kind of data set: Toxicity of 7-HTP on mastocytoma cells P815 (FIG. 3). It is filed as cell-based.
Data set [4] relates to serotonin-producing human carcinoid cells BON. Kind of data set: Toxicity of 7-HTP on human carcinoid cells BON (FIG. 4). It is filed as cell-based.
The test system of another data set is COS7-cells. The data set is described as follows: Growth of COS7-cells that produce no serotonin (FIG. 2). It is filed as cell-based.
From the text: as §1

With `N[C@@H](Cc1c[nH]c2cc(O)ccc12)C(=O)O` [6-HTP, 6-hydroxytryptophan], in data set [1], the “intracellular metabolisation to dihydroxytryptamine toxin” value was “metabolised intracellularly”.
Turning to `N[C@@H](Cc1c[nH]c2c(O)cccc12)C(=O)O` [7-HTP, 7-hydroxytryptophan], the “toxicity on the serotonin-producing cells NG108” value in data set [2] (NG108 cells, FIG. 2) is on record as “Specific toxicity”. The “toxicity on the serotonin-producing mastocytoma cells P815” value in data set [3] was “rapidly and specifically killed”. The “toxicity on the serotonin-producing human carcinoid cells BON” value in data set [4] was “rapidly and specifically killed”. Besides, the “intracellular metabolisation to dihydroxytryptamine toxin” value in data set [1] is listed as “metabolised intracellularly”. Moreover, the “growth of COS7-cells” value in the data set on COS7-cells is on record as “not affected”.
With `N[C@@H](Cc1ccc(Cl)cc1)C(=O)O` [PCPA, p-chlorophenylalanin, reference compound], the “protection of 7-HTP-sensitive NG108-cells against 7-HTP toxicity” value in data set [2] (NG108 cells treated with 7-HTP plus TPH-inhibitor, no 5,7-DHT synthesised intracellularly) was “can be protected”.
